In the assay the test system is K98450-129-R-PDC complex spheroid growth, percent test/control. Nature of the assay: Anticancer human tumor K98450-129-R-PDC patient-derived colon adenocarcinoma cell line growth inhibition [RAS]. The following applies: for viability, T/C: stronger effect = lower value. In a few lines: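 Tumour cells grown as complex spheroids with HUVEC endothelial cells and mesenchymal stem cells, treated with RAS pathway inhibitor combinations. Each agent spans half-log steps from near clinical Cmax, or 10 microM where Cmax is unknown.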

The mark [1] stands for this setting: curve of first compound, second compound 0.0316 µM.
The mark [2] stands for this setting: curve of first compound, second compound 0.1 µM.
[3] abbreviates: curve of first compound, second compound 0.316 µM.
[4] abbreviates: curve of first compound, second compound 1 µM.

pIC50: −log10 of the molar value. “And” between values parts separate entries of the source, which are not always exact repeats. Equal entries are not always repeated.
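Further: spheroids exposed to agents for seven days before the viability readout.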
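Wherever viability, T/C is given: luminescence used as a proxy for viable cell amount.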

The term pIC50 denotes the IC50 on a negative log10 scale, so that one unit is a factor of ten. In general, viability, T/C refers to the result in the treated group divided by that in the control group, in per cent. For the compound `CC1(C)CCC(Nc2ncc(C(F)(F)F)c(-c3c[nH]c4c(P(C)(C)=O)c(C#N)ccc34)n2)CN1` (stereo not given) + C#Cc1c(F)ccc2cc(O)cc(-c3ncc4c(N5CC6CCC(C5)N6)nc(OCC56CCCN5CC(F)C6)nc4c3F)c12, the pIC50 runs as follows: under setting [1], less than 6.52; under setting [2], less than 6.52; under setting [3], less than 6.52; under setting [4], less than 6.52; (curve of first compound, second compound 3.16 µM) less than 6.52; (curve of first compound, second compound 10 µM) less than 6.52. Further, the viability, T/C (second compound 0.0316 µM, first compound 0.000949 µM) was 102%; the viability, T/C (second compound 0.0316 µM, first compound 0.003 µM) was 103%; the viability, T/C (second compound 0.0316 µM, first compound 0.00949 µM) is 100%; the viability, T/C (second compound 0.0316 µM, first compound 0.03 µM) was 105%; the viability, T/C (second compound 0.0316 µM, first compound 0.0949 µM) was 88.5%; the viability, T/C (second compound 0.0316 µM, first compound 0.3 µM) was 58.6%. In addition, the viability, T/C (second compound 0.1 µM, first compound 0.000949 µM) is 107%; the viability, T/C (second compound 0.1 µM, first compound 0.003 µM) is 105%; the viability, T/C (second compound 0.1 µM, first compound 0.00949 µM) was 111%; the viability, T/C (second compound 0.1 µM, first compound 0.03 µM) was 100%; the viability, T/C (second compound 0.1 µM, first compound 0.0949 µM) is 89.3%; the viability, T/C (second compound 0.1 µM, first compound 0.3 µM) was 66.6%. In addition, the viability, T/C (second compound 0.316 µM, first compound 0.000949 µM) was 111%; the viability, T/C (second compound 0.316 µM, first compound 0.003 µM) is 105%; the viability, T/C (second compound 0.316 µM, first compound 0.00949 µM) is 99.8%; the viability, T/C (second compound 0.316 µM, first compound 0.03 µM) was 100%; the viability, T/C (second compound 0.316 µM, first compound 0.0949 µM) is 89.9%; the viability, T/C (second compound 0.316 µM, first compound 0.3 µM) is 69.7%. The viability, T/C reads like this: (second compound 1 µM, first compound 0.000949 µM) 102%; (second compound 1 µM, first compound 0.003 µM) 97.8%; (second compound 1 µM, first compound 0.00949 µM) 99.3%; (second compound 1 µM, first compound 0.03 µM) 105%; (second compound 1 µM, first compound 0.0949 µM) 89.2%; (second compound 1 µM, first compound 0.3 µM) 64%. The viability, T/C is 96.1% (second compound 3.16 µM, first compound 0.000949 µM); 95.3% (second compound 3.16 µM, first compound 0.003 µM); 95.1% (second compound 3.16 µM, first compound 0.00949 µM); 97.7% (second compound 3.16 µM, first compound 0.03 µM); 94.2% (second compound 3.16 µM, first compound 0.0949 µM); 66.7% (second compound 3.16 µM, first compound 0.3 µM). The viability, T/C runs as follows: (second compound 10 µM, first compound 0.000949 µM) 89%; (second compound 10 µM, first compound 0.003 µM) 94.2%; (second compound 10 µM, first compound 0.00949 µM) 91.4%; (second compound 10 µM, first compound 0.03 µM) 98.4%; (second compound 10 µM, first compound 0.0949 µM) 85.9%; (second compound 10 µM, first compound 0.3 µM) 61.9%.

On to `CCN1CCN(Cc2ccc(Nc3ncc(F)c(-c4cc(F)c5nc(C)n(C(C)C)c5c4)n3)nc2)CC1` + C=CC(=O)N1CCN(c2nc(OCC3CCCN3C)nc3c(F)c(-c4nc(N)cc(C)c4C(F)(F)F)c(Cl)cc23)C(C)C1, for which the pIC50 was 6.29 (curve of first compound, second compound 0.00316 µM); 6.75 (curve of first compound, second compound 0.01 µM); 7.18 under setting [1]; 7.69 under setting [2]; greater than 8.50 under setting [3]; greater than 8.50 under setting [4]. The viability, T/C runs as follows: (second compound 0.00316 µM, first compound 0.00316 µM) 95%; (second compound 0.00316 µM, first compound 0.01 µM) 97.3%; (second compound 0.00316 µM, first compound 0.0316 µM) 81.8%; (second compound 0.00316 µM, first compound 0.1 µM) 75.2%; (second compound 0.00316 µM, first compound 0.316 µM) 48.7%; (second compound 0.00316 µM, first compound 1 µM) 47.8%. Moreover, the viability, T/C was 90.8% (second compound 0.01 µM, first compound 0.00316 µM); 86.8% (second compound 0.01 µM, first compound 0.01 µM); 73.7% (second compound 0.01 µM, first compound 0.0316 µM); 57.8% (second compound 0.01 µM, first compound 0.1 µM); 42.3% (second compound 0.01 µM, first compound 0.316 µM); 36.2% (second compound 0.01 µM, first compound 1 µM). The viability, T/C by setting is: (second compound 0.0316 µM, first compound 0.00316 µM) 73.3%; (second compound 0.0316 µM, first compound 0.01 µM) 68.3%; (second compound 0.0316 µM, first compound 0.0316 µM) 62.5%; (second compound 0.0316 µM, first compound 0.1 µM) 43.2%; (second compound 0.0316 µM, first compound 0.316 µM) 32.4%; (second compound 0.0316 µM, first compound 1 µM) 31.9%. In addition, the viability, T/C runs as follows: (second compound 0.1 µM, first compound 0.00316 µM) 60.2%; (second compound 0.1 µM, first compound 0.01 µM) 55.1%; (second compound 0.1 µM, first compound 0.0316 µM) 46.6%; (second compound 0.1 µM, first compound 0.1 µM) 36.6%; (second compound 0.1 µM, first compound 0.316 µM) 27%; (second compound 0.1 µM, first compound 1 µM) 29.2%. In addition, the viability, T/C runs as follows: (second compound 0.316 µM, first compound 0.00316 µM) 44.4%; (second compound 0.316 µM, first compound 0.01 µM) 41.2%; (second compound 0.316 µM, first compound 0.0316 µM) 33.1%; (second compound 0.316 µM, first compound 0.1 µM) 27.9%; (second compound 0.316 µM, first compound 0.316 µM) 24.2%; (second compound 0.316 µM, first compound 1 µM) 28.4%. The viability, T/C (second compound 1 µM, first compound 0.00316 µM) was 31.8%; the viability, T/C (second compound 1 µM, first compound 0.01 µM) is 32.1%; the viability, T/C (second compound 1 µM, first compound 0.0316 µM) is 28.7%; the viability, T/C (second compound 1 µM, first compound 0.1 µM) is 24.3%; the viability, T/C (second compound 1 µM, first compound 0.316 µM) is 24.6%; the viability, T/C (second compound 1 µM, first compound 1 µM) is 29.2%.

Turning to `CCN1CCN(Cc2ccc(Nc3ncc(F)c(-c4cc(F)c5nc(C)n(C(C)C)c5c4)n3)nc2)CC1`, the viability, T/C by setting is: (compound 0.00316 µM) 103% [middle of 4 runs]; (compound 0.01 µM) 99.4% [middle of 4 runs]; (compound 0.0316 µM) 96.8% [middle of 4 runs]; (compound 0.1 µM) 97.3% [middle of 4 runs]. Moreover, the pIC50 (curve of compound) is less than 6.00.

A word on the IC50: it is the concentration that gives 50% inhibition. With `C=CC(=O)Nc1cc(Nc2nccc(-c3cn(C)c4ccccc34)n2)c(OC)cc1N(C)CCN(C)C`, the viability, T/C (compound 0.00316 µM) is 102% (2×) and 95.4% and 104%; the viability, T/C (compound 0.01 µM) is 96.2% [middle of 4 runs]; the viability, T/C (compound 0.1 µM) is 100% [middle of 4 runs]; the viability, T/C (compound 0.316 µM) was 70.7% [middle of 4 runs]; the viability, T/C (compound 1 µM) is 36% [middle of 4 runs]. Moreover, for the setting “curve of compound”, the IC50 is 633 nM [middle of 4 runs].

(Values after PubChem BioAssay AID2060891 (Molecular Pharmacology Branch, DTP, NCI, 2025).)
